Consider 7 molecules from patent US20090306392A1, “GSM INTERMEDIATES” (priority 2007, published 2009).

The first experiment concerns γ-secretase. In words: Screening for γ-secretase-modulating activity in SKNBE2 cells carrying APP 695-wild type. It is filed as cell-based. The conditions noted are these: 0.3 uM; SKNBE2 cells carrying the APP 695-wild type.
On to `CC(C)CC(C(=O)O)c1cc(-c2ccc(C(F)(F)F)cc2)cc(C2CCN(Cc3ccc(C(F)(F)F)cc3)CC2)c1` (stereo not shown) [Example 31, 4-Methyl-2-{4′-trifluoromethyl-5-[1-(4-trifluoromethyl-benzyl)-piperidin-4-yl]-biphenyl-3-yl}-pentanoic Acid], for which the “% @ 0.3 uM (WTAPP)” value turned out to be 8% @ 0.3 uM.

The experiment is the same for the next values; noted with them: SKNBE2 cells carrying the APP 695-wild type; read-out: EC 50 WTAPP.
With `CCC(c1ccc(C(F)(F)F)cc1)N1CCCC(c2cc(-c3ccc(C(F)(F)F)cc3)cc([C@@H](CC(C)C)C(=O)O)c2)C1` (single isomer, unassigned) [Example 26, (R*)4-Methyl-2-(4′-trifluoromethyl-5-{1-[1-(4-trifluoromethyl-phenyl)-propyl]-piperidin-3-yl}-biphenyl-3-yl)-pentanoic Acid], the EC50 is 0.36 µM.
Same read-out and setting: to `CC(C)CC(C(=O)O)c1cc(CCc2ccc(-c3ccccc3)cc2)cc(-c2ccc(C(F)(F)F)cc2)c1` (stereo not shown) [Example 24, 2-[5-(2-Biphenyl-4-yl-ethyl)-4′-trifluoromethyl-biphenyl-3-yl]-4-methyl-pentanoic Acid] belongs 0.21 µM.
On the same count and under the same terms, with `CC(C)CC(C(=O)O)c1cc(-c2ccc(C(F)(F)F)cc2)cc(-c2cc(F)nc(F)c2)c1` (stereo not shown) [Example 19, 2-[5-(2,6-Difluoro-pyridin-4-yl)-4′-trifluoromethyl-biphenyl-3-yl]-4-methyl-pentanoic Acid] the figure was 0.22 µM; with `CC(C)CC(C(=O)O)c1cc(-c2ccc(C(F)(F)F)cc2)cc(-c2ccc(OC(F)(F)F)c(F)c2)c1` (stereo not shown) [Example 6, 2-(3-Fluoro-4-trifluoromethoxy-4″-trifluoromethyl-[1,1′;3′,1″]terphenyl-5′-yl)-4-methyl-pentanoic Acid], 0.14 µM.
Still for that read-out and setting: with `CC(C)CCC(c1ccc(C(F)(F)F)cc1)N1CCC(c2cc(-c3ccc(C(F)(F)F)cc3)cc(C(CC(C)C)C(=O)O)c2)CC1` (stereo not shown) [Example 32, 4-Methyl-2-(5-{1-[4-methyl-1-(4-trifluoromethyl-phenyl)-pentyl]-piperidin-4-yl}-4′-trifluoromethyl-biphenyl-3-yl)-pentanoic Acid] the figure was 2.08 µM.
For `CC(C)CCC(Nc1cc(-c2ccc(C(F)(F)F)cc2)cc(C(CC(C)C)C(=O)O)c1)c1cc(C(F)(F)F)cc(C(F)(F)F)c1` (stereo not shown) [Example 39, 2-{5-[1-(3,5-Bis-trifluoromethyl-phenyl)-4-methyl-pentylamino]-4′-trifluoromethyl-biphenyl-3-yl}-4-methyl-pentanoic Acid], the EC50 amounted to 0.22 µM.
